# Legend:
# anti-Borrelia IgM serum = test: Protection of anti-Borrelia IgM in spiked feces by various substances (ELISA), Example 4; settings: 33°C for 3 hours; for ELISA OD: concentrations of all cations 0.219M, dilution in ELISA 1/3000
# Procedure: (§1) 25 µl of a high titred anti-Borrelia IgM serum obtained from a patient with acute Borreliosis was added to 5 tubes, each containing 50 mg of a fecal sample from a healthy volunteer. Following vortexing for 30 seconds, 500 µl of the normotonic (319 mOsm/L) solutions (i) 1 X PBS (7,7 mM Na2HPO4, 2,99 mM NaH2PO4, 145 mM NaCl), (ii) 64.5 mM zinc gluconate, (iii) 64,5 mM MgCl2, (iv) 64.5 mM magnesium gluconate or (v) 96.9 mM NaCl, the latter four all dissolved in 1/3 X PBS to obtain the same osmolarity as 1 X PBS, i.e. 319 mOsm/L was added to each of the five tubes. Following vortexing for 30 seconds, the tubes were subsequently incubated at 30°C for 5 hours. Thereafter, 250 µl of a protease inhibitor cocktail (see above) was added to each of the 5 tubes. Solid matter was suspended by vortexing for another 30 seconds followed by centrifugation at 13,000 x g for 10 min. The supernatants were stored at -70°C prior to examination or immediately tested in a commercially available anti-Borrelia IgM ELISA. For the purpose of comparison, 25 µl of the anti-Borrelia IgM serum was run in the immunoassay.
# 50 milligrams of feces and 25 µl of anti-Borrelia IgM serum were incubated at 33°C for 3 hours with each of the substances described in table 2. Following incubation, the fecal samples were processed and the extracts were obtained as described in example 3.
# [1] = system: anti-Borrelia IgM antibodies; test: Inhibition of degradation of anti-Borrelia IgM in spiked fecal samples (anti-Borrelia IgM ELISA), Example 1; settings: for Initial ELISA, O.D.: feces plus anti-Borrelia IgM serum plus 10% zinc gluconate, 30°C for 5 hours
# Procedure: In example numbers 1-5, fecal samples are spiked with a single analyte of interest, i.e. a predetermined amount of a high titered anti-Borrelia IgM serum is added to fecal samples in order to determine the extent to which the protective solution of the present invention prevents the degradation of the particular analyte added.
# (§2) 50 µl of a high titer anti-Borrelia IgM serum obtained from a patient with acute Borreliosis was added to 3 tubes each containing 50 mg of a fecal sample from a healthy volunteer. Following vortexing for 30 seconds, the tubes were incubated at 30°C for 5 hours in the presence or absence of 150 µl of 10% zinc gluconate (Gluconal® ZN-G; Glucona B.V., Veendam, The Netherlands). Following incubation, 150 µl of a protease inhibitor cocktail (0.2 mM 4-{2-aminoethyl}benzenesulfonylfluoride [Calbiochem], 1 µg of aprotinin [Sigma] per ml, 10 µM leupeptin [Sigma], and 3.25 µM bestatin [Boehringer Mannheim, Indianapolis, USA]) was added. After vortexing, the tubes were centrifuged at 13,000 x g for 10 min. The supernatants were stored at -70°C or immediately tested in a commercially available anti-Borrelia IgM ELISA (IDELA™ Borrelia burgdorferi IgM, DAKO Diagnostics Ltd., Cambridgeshire, UK). For the purpose of comparison, 50 µl of anti-Borrelia IgM serum was run in the immunoassay.
# The results are given in figure 4, Y-axis: ELISA results (O.D. value); X-axis: F+S; feces plus anti-Borrelia IgM serum incubated at 30°C or on ice for 5 hours, F+S+ZG; feces plus anti-Borrelia IgM serum plus zinc gluconate incubated at 30°C for 5 hours. […]
# [2] = system: anti-Borrelia IgM antibodies; test: Protection of anti-Borrelia IgM in spiked feces by equimolar zinc compounds (ELISA), Example 5; settings: 37°C for 4 hours, zinc concentration = 0.219M; for ELISA OD: dilution in ELISA 1/1450
# Procedure: 50 milligrams of feces and 25 µl of anti-Borrelia IgM serum was incubated at 37°C for 4 hours with equimolar concentrations of zinc gluconate, zinc chloride and zinc acetate (zinc concentration = 0.219M).
# anti-Borrelia IgM = test: Effect of normotonic (319 mOsm/L) solutions on degradation of anti-Borrelia IgM in spiked feces, Example 3
# Procedure: as §1, with “immunoassay. […]” for “immunoassay.”
# [3] = system: anti-Borrelia IgM antibodies; test: Long term stability of IgM antibodies extracted from spiked fecal samples, re-analysis in anti-Borrelia IgM ELISA, Example 2; settings: extract stored at -70°C for 4 months, incubated 30°C for 5 hours
# Procedure: as §2
# The fecal extracts described in Example 1 were stored at -70°C for 4 months, and then re-analyzed in the anti-Borrelia IgM ELISA to check the long term stability of the antibodies stored in the presence or absence of 10% zinc gluconate.
compound,measurement,setting,value
N=C(NCCCCCCNC(=N)NC(=N)Nc1ccc(Cl)cc1)NC(=N)Nc1ccc(Cl)cc1 [Chlorhexidine gluconate],ELISA OD,anti-Borrelia IgM serum,0.003 OD
Copper sulphate,ELISA OD,anti-Borrelia IgM serum,0.018 OD
Sodium chloride,ELISA OD,anti-Borrelia IgM serum,0.043 OD
zinc gluconate,capacity of the IgA molecules to bind antigen (CTB),anti-CTB IgA,preserved
same,inhibition of degradation of IgA (figure 6),anti-CTB IgA,significantly inhibit the degradation
same,inhibition of degradation of anti-Borrelia IgM antibodies (figure 4),"[1]; 10% solution, fecal samples at 30°C for 5 hours",substantially inhibits the degradation
same,"Initial ELISA, O.D.",[1]; sample dilution 1/60,2.59 O.D.
same,"Initial ELISA, O.D.",[1]; sample dilution 1/180,2.57 O.D.
same,"Initial ELISA, O.D.",[1]; sample dilution 1/540,2.08 O.D.
same,protection among the substances tested (Table 2),anti-Borrelia IgM serum; cations 0.219M,gives the best protection
same,ELISA OD,anti-Borrelia IgM serum,0.360 OD
same,protection of anti-Borrelia IgM antibodies from degradation (Table 3),[2],significantly protects
same,ELISA OD,[2],0.910 OD
same,inhibition of degradation of anti-Borrelia IgM (Figure 5),"anti-Borrelia IgM; 64.5 mM in 1/3 X PBS, normotonic (319 mOsm/l), 30°C for 5 hours in feces",substantially inhibits the degradation
same,efficiency in conferring protection among the examined compounds (Figure 5),"anti-Borrelia IgM; compared with normotonic PBS, MgCl2, magnesium gluconate, NaCl, 30°C for 5 hours",the most efficient
same,ELISA O.D. after 4 months,[3]; sample dilution 1/60,2.48 O.D.
same,ELISA O.D. after 4 months,[3]; sample dilution 1/180,2.40 O.D.
same,ELISA O.D. after 4 months,[3]; sample dilution 1/540,1.75 O.D.
Zinc acetate [reference compound],ELISA OD,[2],0.281 OD
Zinc chloride [reference compound],ELISA OD,[2],0.011 OD
Manganese chlonde,ELISA OD,anti-Borrelia IgM serum,0.184 OD
O=C([O-])[C@H](O)[C@@H](O)[C@H](O)[C@H](O)CO.[Na+] [Sodium gluconate],ELISA OD,anti-Borrelia IgM serum,0.087 OD
Copper acetate,ELISA OD,anti-Borrelia IgM serum,0.042 OD

# — EP1029246B1, “A METHOD AND DEVICE FOR PREVENTING IMMUNOGLOBULIN DEGRADATION IN EXTERNAL SECRETIONS” (priority 1997, dated 1999)
